The record followed here is ChEMBL document CHEMBL3727356, “Therapeutic compounds and compositions” (2014).

Assay [1] has as its target Pyruvate kinase PKLR (Homo sapiens, UniProt P30613, R510Q). The experiment in a line: Activation of PKR R510Q mutant (unknown origin) incubated for 60 mins in presence of ADP, PEP and NADH by Spectraax microplate reader based assay.
Assay [2] has as its target Pyruvate kinase PKLR (Homo sapiens, UniProt P30613, R532W). Briefly: Activation of PKR R532W mutant (unknown origin) incubated for 60 mins in presence of ADP, PEP and NADH by Spectraax microplate reader based assay.
Assay [3] deals with T1, Pyruvate kinase PKLR (Homo sapiens, UniProt P30613). The experiment in a line: Activation of wild type PKR (unknown origin) incubated for 60 mins in presence of ADP, PEP and NADH by Spectraax microplate reader based assay.
T1 sequence (P30613 whole entry): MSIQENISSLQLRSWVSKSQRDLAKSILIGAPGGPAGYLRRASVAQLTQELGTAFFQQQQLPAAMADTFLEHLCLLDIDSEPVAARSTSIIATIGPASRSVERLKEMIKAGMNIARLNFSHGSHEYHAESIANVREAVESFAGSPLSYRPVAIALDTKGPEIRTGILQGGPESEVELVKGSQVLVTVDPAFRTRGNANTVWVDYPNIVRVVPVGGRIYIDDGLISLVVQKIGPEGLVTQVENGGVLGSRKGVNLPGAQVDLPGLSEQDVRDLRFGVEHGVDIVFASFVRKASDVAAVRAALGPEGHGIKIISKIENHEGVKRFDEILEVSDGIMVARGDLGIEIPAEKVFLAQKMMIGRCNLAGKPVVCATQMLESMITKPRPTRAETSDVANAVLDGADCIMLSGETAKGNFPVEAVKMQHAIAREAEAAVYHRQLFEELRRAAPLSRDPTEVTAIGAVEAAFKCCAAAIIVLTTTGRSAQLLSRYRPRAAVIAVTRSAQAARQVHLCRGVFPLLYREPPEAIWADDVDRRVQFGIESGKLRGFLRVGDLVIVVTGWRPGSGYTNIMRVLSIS
The target in assay [4] is T1, Pyruvate kinase PKLR. The experiment in a line: Activation of wild type PKR (unknown origin) by cell based assay.

Pyruvate kinase PKLR (Homo sapiens, UniProt P30613, R532W), sequence (P30613 whole entry R532W): as the sequence (P30613 whole entry) above, with R532W counted along it
Pyruvate kinase PKLR (Homo sapiens, UniProt P30613, R510Q), sequence (P30613 whole entry R510Q): as the sequence (P30613 whole entry) above, with R510Q counted along it

As for `O=C(c1ccc(NS(=O)(=O)c2cccc3ncccc23)cc1)N1CCC(O)(c2ccccc2)CC1`, the AC50 in assay [1] is above 10000 nM.
With `CN1CCC(CC2(O)CCN(C(=O)c3ccc(NS(=O)(=O)c4cccc5scnc45)cc3)CC2)C1=O` (centres undefined), in assay [1], the AC50 was above 10000 nM.
The same measure, in the same setting: in the case of `O=C(c1ccc(NS(=O)(=O)c2cccc3cccnc23)nc1)N1CCC(O)(c2ccccc2)CC1` it was above 10000 nM; in that of `O=C(c1ccc(NS(=O)(=O)c2cccc3scnc23)cc1)N1CCC(O)(c2cn[nH]c2)CC1`, above 10000 nM; in that of `CS(=O)(=O)CCC1(O)CCN(C(=O)c2ccc(NS(=O)(=O)c3cccc4nccnc34)cc2)CC1`, above 10000 nM.
The same measure, in the same setting: in the case of `CCn1cc(CC2(O)CCN(C(=O)c3ccc(NS(=O)(=O)c4cccc5nccnc45)cc3)CC2)cn1` it was above 10000 nM; in that of `CC(C)CC1(O)CCN(C(=O)c2ccc(NS(=O)(=O)c3cccn4ccnc34)cc2)CC1`, above 10000 nM; in that of `COc1cccnc1C1(O)CCN(C(=O)c2ccc(NS(=O)(=O)c3cccc4cccnc34)cc2)CC1`, above 10000 nM.
The same measure, in the same setting: with `O=C(c1ccc(NS(=O)(=O)c2cccc3scnc23)cc1)N1CCC(O)(c2ncc(Cl)s2)CC1` the figure was above 10000 nM; with `COc1nc(C(=O)N2CCC(O)(c3ccccc3)CC2)ccc1NS(=O)(=O)c1cccc2cccnc12`, above 10000 nM.
Consider `O=C(c1ccc(NS(=O)(=O)c2cccc3cccnc23)cc1)N1CCC(O)(c2cccc(C(F)(F)F)c2)CC1`, for which the half-maximal activity concentration (AC50) in assay [2], in assay [3] and in assay [4] was below 100 nM throughout.
Regarding `O=C(c1ccc(NS(=O)(=O)c2cccc3c2OCCO3)cc1)N1CCC(O)(Cc2ccccc2)CC1`, the AC50 in assay [2], in assay [3] and in assay [4] was below 100 nM throughout.
Turning to `O=C(c1ccc(NS(=O)(=O)c2cccc3cccnc23)cc1)N1CCC(O)(c2cccc(C(F)(F)F)n2)CC1`, the concentration at half-maximal activity (AC50) in assay [2], in assay [3] and in assay [4] was below 100 nM in each case.
`O=C(c1ccc(NS(=O)(=O)c2cccc3scnc23)cc1)N1CCC(O)(CCC=C(F)F)CC1`: the AC50 in assay [2], in assay [3] and in assay [4] was below 100 nM in each case.
Take `CC(C)CC1(OP(=O)(O)O)CCN(C(=O)c2ccc(NS(=O)(=O)c3cccc4nccnc34)cc2)CC1`: the AC50 in assay [1] is above 10000 nM.
As for `O=C(c1ccc(NS(=O)(=O)c2cccc3cccnc23)cc1)N1CCC(O)(c2cccnc2C(F)(F)F)CC1`, the half-maximal activity concentration (AC50) in assay [2], in assay [3] and in assay [4] was below 100 nM each time.
Turning to `O=C(c1ccc(NS(=O)(=O)c2cccc3cccnc23)cc1)N1CCC(O)(Cc2cccc(F)n2)CC1`, the AC50 in assay [2], in assay [3] and in assay [4] was below 100 nM throughout.
In the case of `Cn1nccc1CC1(O)CCN(C(=O)c2ccc(NS(=O)(=O)c3cccc4nccnc34)cc2)CC1`, the half-maximal activity concentration (AC50) in assay [2], in assay [3] and in assay [4] was below 100 nM each time.
In the case of `O=C(c1ccc(NS(=O)(=O)c2cccc3nsnc23)cc1)N1CCC(O)(c2ccccc2)CC1`, the concentration at half-maximal activity (AC50) in assay [1] is above 10000 nM.
Regarding `O=C(c1ccc(NS(=O)(=O)c2cccc3nccnc23)cc1)N1CCC(O)(CCC(F)=C(F)F)CC1`, the AC50 in assay [2], in assay [3] and in assay [4] was below 100 nM in each case.
With `O=C(c1ccc(NS(=O)(=O)c2cccc3cccnc23)cc1)N1CCC(O)(Cc2cccc(F)c2F)CC1`, the AC50 in assay [2], in assay [3] and in assay [4] was below 100 nM each time.
On to `CCCC1(O)CCN(C(=O)c2ccc(NS(=O)(=O)c3cccc4cccnc34)cc2)CC1`, for which the concentration at half-maximal activity (AC50) in assay [2], in assay [3] and in assay [4] was below 100 nM in each case.
In the case of `N#Cc1cc(NS(=O)(=O)c2cccc3cccnc23)ccc1C(=O)N1CCC(O)(c2ccccc2Cl)CC1`, the AC50 in assay [2], in assay [3] and in assay [4] was below 100 nM throughout.
Turning to `O=C1NCCC1CC1(O)CCN(C(=O)c2ccc(NS(=O)(=O)c3cccc4nccnc34)cc2)CC1` (centres undefined), the AC50 in assay [1] is above 10000 nM.
For the molecule `CC(C)CC1(O)CCN(C(=O)c2ccc(NS(=O)(=O)c3cncc4cccnc34)cc2)CC1`, the AC50 in assay [2], in assay [3] and in assay [4] was below 100 nM each time.
For `CS(=O)(=O)c1ccccc1C1(O)CCN(C(=O)c2ccc(NS(=O)(=O)c3cccc4cccnc34)cc2)CC1`, the AC50 in assay [2], in assay [3] and in assay [4] was below 100 nM throughout.
Consider `O=C(c1ccc(NS(=O)(=O)c2cccc3cc(F)cnc23)cc1)N1CCC(O)(c2ccccc2)CC1`, for which the AC50 in assay [2], in assay [3] and in assay [4] was below 100 nM throughout.
As for `O=C(c1ccc(NS(=O)(=O)c2cccc3cccnc23)cc1)N1CCC(O)(c2cnsc2)CC1`, the AC50 in assay [2], in assay [3] and in assay [4] was below 100 nM in each case.
For `O=C(c1ccc(NS(=O)(=O)c2cccc3c(O)ncnc23)cc1)N1CCC(O)(c2cccc(F)c2F)CC1`, the AC50 in assay [2], in assay [3] and in assay [4] was below 100 nM in each case.
In the case of `O=C(c1ccc(NS(=O)(=O)c2cccc3scnc23)cc1)N1CCC(O)(CCCC(F)(F)F)CC1`, the AC50 in assay [2], in assay [3] and in assay [4] was below 100 nM in each case.
Consider `O=C(c1ccc(NS(=O)(=O)c2cccc3scnc23)cc1)N1CCC(O)(c2ccccc2Cl)CC1`, for which the half-maximal activity concentration (AC50) in assay [2], in assay [3] and in assay [4] was below 100 nM throughout.
Turning to `O=C(c1ccc(NS(=O)(=O)c2cccc3nccnc23)cc1)N1CCC(O)(CCCC(F)F)CC1`, the AC50 in assay [2], in assay [3] and in assay [4] was below 100 nM throughout.
Regarding `Cc1ncccc1C1(O)CCN(C(=O)c2ccc(NS(=O)(=O)c3cccc4cccnc34)cc2)CC1`, the AC50 in assay [2], in assay [3] and in assay [4] was below 100 nM each time.
Consider `O=C(c1ccc(NS(=O)(=O)c2cccc3cccnc23)cc1)N1CCC(O)(c2cc(F)ccc2Cl)CC1`, for which the concentration at half-maximal activity (AC50) in assay [2], in assay [3] and in assay [4] was below 100 nM in each case.
For `O=C(c1ccc(NS(=O)(=O)c2cccc3cccnc23)cc1)N1CCC(O)(c2ccc(F)cc2)CC1`, the half-maximal activity concentration (AC50) in assay [2], in assay [3] and in assay [4] was below 100 nM throughout.
In the case of `O=C(c1ccc(NS(=O)(=O)c2cccc3cccnc23)c(Cl)c1)N1CCC(O)(c2ccccc2Cl)CC1`, the concentration at half-maximal activity (AC50) in assay [2], in assay [3] and in assay [4] was below 100 nM in each case.
As for `Cc1cc(C(=O)N2CCC(O)(c3cccc(F)c3F)CC2)ccc1NS(=O)(=O)c1cccc2nccnc12`, the concentration at half-maximal activity (AC50) in assay [2], in assay [3] and in assay [4] was below 100 nM in each case.
Regarding `CC(C)CC1(O)CCN(C(=O)c2ccc(NS(=O)(=O)c3ccc(F)c4cccnc34)cc2)CC1`, the AC50 in assay [2], in assay [3] and in assay [4] was below 100 nM in each case.
Take `Cc1cccnc1C1(O)CCN(C(=O)c2ccc(NS(=O)(=O)c3cccc4cccnc34)cc2)CC1`: the AC50 in assay [2], in assay [3] and in assay [4] was below 100 nM each time.
Take `CC(F)(F)CCC1(O)CCN(C(=O)c2ccc(NS(=O)(=O)c3cccc4nc(N)cnc34)cc2)CC1`: the concentration at half-maximal activity (AC50) in assay [2], in assay [3] and in assay [4] was below 100 nM each time.

The term AC50 denotes the concentration giving half of the maximal activity seen.
